Data reported in ChEMBL document CHEMBL1201862, “PubChem BioAssay data set” (2004).
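Exposure lasted 48 hours, with cells grown in 96-well plates and compounds tested at five concentrations. Here, GI50 denotes the concentration required for 50% inhibition of growth.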 Activity calls are given as the source filed them. No stated cut-off is given here; in the data, active = GI50 up to about 1.1 µM and inactive = higher.

What was measured:
Test in all cases: NCI-60 cell line screen, 48 h
SW-620 = tested on: SW-620
SR = tested on: SR
COLO 205 = tested on: COLO 205
CCRF-CEM = tested on: CCRF-CEM
KM-20L2 = tested on: KM-20L2
UO-31 = tested on: UO-31
DLD-1 = tested on: DLD-1
NCI-H522 = tested on: NCI-H522
HOP-62 = tested on: HOP-62
HCC 2998 = tested on: HCC 2998
HOP-92 = tested on: HOP-92
SF-539 = tested on: SF-539
OVCAR-5 = tested on: OVCAR-5
HCT-15 = tested on: HCT-15
CAKI-1 = tested on: CAKI-1
UACC-62 = tested on: UACC-62
OVCAR-4 = tested on: OVCAR-4
IGROV-1 = tested on: IGROV-1
XF498 = tested on: XF498
EKVX = tested on: EKVX
Malme-3M = tested on: Malme-3M
UACC-257 = tested on: UACC-257
M19-MEL = tested on: M19-MEL
NCI-H226 = tested on: NCI-H226
LOX IMVI = tested on: LOX IMVI
TK-10 = tested on: TK-10
RXF 393 = tested on: RXF 393
SK-OV-3 = tested on: SK-OV-3
SK-MEL-2 = tested on: SK-MEL-2
SK-MEL-28 = tested on: SK-MEL-28
HL-60 = tested on: HL-60
NCI-H460 = tested on: NCI-H460
A549 = tested on: A549
SF-268 = tested on: SF-268
DMS-273 = tested on: DMS-273
OVCAR-3 = tested on: OVCAR-3
786-0 = tested on: 786-0
U-251 = tested on: U-251
ACHN = tested on: ACHN
KM12 = tested on: KM12
SK-MEL-5 = tested on: SK-MEL-5
SF-295 = tested on: SF-295
OVCAR-8 = tested on: OVCAR-8
SN12C = tested on: SN12C
RPMI-8226 = tested on: RPMI-8226
SNB-75 = tested on: SNB-75
SNB-19 = tested on: SNB-19
DMS-114 = tested on: DMS-114
K562 = tested on: K562
LXFL 529 = tested on: LXFL 529
SNB-78 = tested on: SNB-78
M14 = tested on: M14
HT-29 = tested on: HT-29
NCI-H23 = tested on: NCI-H23
MDA-MB-435 = tested on: MDA-MB-435
MCF7 = tested on: MCF7
MDA-N = tested on: MDA-N
Hs-578T = tested on: Hs-578T
NCI/ADR-RES = tested on: NCI/ADR-RES
HOP-18 = tested on: HOP-18
A498 = tested on: A498
T47D = tested on: T47D
PC-3 = tested on: PC-3
DU-145 = tested on: DU-145
MOLT-4 = tested on: MOLT-4
MDA-MB-231 = tested on: MDA-MB-231
HCT-116 = tested on: HCT-116
BT-549 = tested on: BT-549

## CC1CN(c2ccc(Cl)cc2)CC(C)OC(=O)O1 (stereo unspecified)
SW-620
  GI50: > 100 µM (inactive)
SR
  GI50: > 100 µM (inactive)
COLO 205
  GI50: > 100 µM (inactive)
CCRF-CEM
  GI50: > 100 µM (inactive)
KM-20L2
  GI50: > 100 µM (inactive)
UO-31
  GI50: > 100 µM (inactive)
DLD-1
  GI50: > 100 µM (inactive)
NCI-H522
  GI50: > 100 µM (inactive)
HOP-62
  GI50: > 100 µM (inactive)
HCC 2998
  GI50: > 100 µM (inactive)
HOP-92
  GI50: > 100 µM (inactive)
SF-539
  GI50: > 100 µM (inactive)
OVCAR-5
  GI50: > 100 µM (inactive)
HCT-15
  GI50: > 100 µM
CAKI-1
  GI50: > 100 µM (inactive)
UACC-62
  GI50: > 100 µM (inactive)
OVCAR-4
  GI50: > 100 µM (inactive)
IGROV-1
  GI50: > 100 µM (inactive)
XF498
  GI50: > 100 µM (inactive)
EKVX
  GI50: > 100 µM (inactive)
Malme-3M
  GI50: > 100 µM (inactive)
UACC-257
  GI50: > 100 µM (inactive)
M19-MEL
  GI50: > 100 µM (inactive)
NCI-H226
  GI50: > 100 µM (inactive)
LOX IMVI
  GI50: > 100 µM (inactive)
TK-10
  GI50: > 100 µM (inactive)
RXF 393
  GI50: > 100 µM (inactive)
SK-OV-3
  GI50: > 100 µM (inactive)
SK-MEL-2
  GI50: > 100 µM (inactive)
SK-MEL-28
  GI50: > 100 µM (inactive)
HL-60
  GI50: > 100 µM (inactive)
NCI-H460
  GI50: > 100 µM (inactive)
A549
  GI50: > 100 µM (inactive)
SF-268
  GI50: > 100 µM (inactive)
DMS-273
  GI50: > 100 µM (inactive)
OVCAR-3
  GI50: > 100 µM (inactive)
786-0
  GI50: > 100 µM (inactive)
U-251
  GI50: > 100 µM (inactive)
ACHN
  GI50: > 100 µM (inactive)
KM12
  GI50: > 100 µM (inactive)
SK-MEL-5
  GI50: > 100 µM (inactive)
SF-295
  GI50: > 100 µM (inactive)
OVCAR-8
  GI50: > 100 µM (inactive)
SN12C
  GI50: > 100 µM (inactive)
RPMI-8226
  GI50: > 100 µM (inactive)
SNB-75
  GI50: > 100 µM (inactive)
SNB-19
  GI50: > 100 µM (inactive)
DMS-114
  GI50: > 100 µM (inactive)
K562
  GI50: > 100 µM (inactive)
LXFL 529
  GI50: > 100 µM (inactive)
SNB-78
  GI50: > 100 µM (inactive)
M14
  GI50: > 100 µM (inactive)
HT-29
  GI50: > 100 µM (inactive)
NCI-H23
  GI50: > 100 µM (inactive)

## N[C@H](C(=O)O)[C@@H]1CC(Cl)=NO1 [ACIVICIN]
SW-620
  GI50: 1.07 µM (active)
SR
  GI50: 0.74 µM (active)
COLO 205
  GI50: 5.92 µM (inactive)
CCRF-CEM
  GI50: 1.19 µM (inactive)
KM-20L2
  GI50: 1.36 µM (inactive)
UO-31
  GI50: 6.25 µM (inactive)
MDA-MB-435
  GI50: 3.9 µM (inactive)
DLD-1
  GI50: 1.23 µM (inactive)
MCF7
  GI50: 0.676 µM (active)
NCI-H522
  GI50: 4.43 µM (inactive)
MDA-N
  GI50: 4.06 µM (inactive)
Hs-578T
  GI50: 3.62 µM (inactive)
NCI/ADR-RES
  GI50: 4.44 µM (inactive)
HOP-62
  GI50: 1.42 µM (inactive)
HOP-18
  GI50: 37.9 µM (inactive)
HCC 2998
  GI50: 8.99 µM (inactive)
HOP-92
  GI50: 33.2 µM (inactive)
SF-539
  GI50: 3.56 µM (inactive)
OVCAR-5
  GI50: 7.71 µM (inactive)
HCT-15
  GI50: 0.738 µM
CAKI-1
  GI50: 2.52 µM (inactive)
UACC-62
  GI50: 2.79 µM (inactive)
OVCAR-4
  GI50: 14.6 µM (inactive)
IGROV-1
  GI50: 0.698 µM (active)
XF498
  GI50: 23.8 µM (inactive)
EKVX
  GI50: 2.54 µM (inactive)
Malme-3M
  GI50: 4.26 µM (inactive)
UACC-257
  GI50: 4.8 µM (inactive)
A498
  GI50: 6.84 µM (inactive)
LOX IMVI
  GI50: 1.46 µM (inactive)
TK-10
  GI50: 2.7 µM (inactive)
RXF 393
  GI50: 7.62 µM (inactive)
SK-OV-3
  GI50: 12.6 µM (inactive)
T47D
  GI50: 7.73 µM (inactive)
SK-MEL-2
  GI50: 4.61 µM (inactive)
PC-3
  GI50: 1.48 µM (inactive)
SK-MEL-28
  GI50: 4.4 µM (inactive)
DU-145
  GI50: 2.48 µM (inactive)
HL-60
  GI50: 3.44 µM (inactive)
NCI-H460
  GI50: 0.452 µM (active)
MOLT-4
  GI50: 2.14 µM (inactive)
A549
  GI50: 0.916 µM (active)
SF-268
  GI50: 1.53 µM (inactive)
DMS-273
  GI50: 2.33 µM (inactive)
OVCAR-3
  GI50: 2.17 µM (inactive)
786-0
  GI50: 13.8 µM (inactive)
U-251
  GI50: 2.21 µM (inactive)
ACHN
  GI50: 1.47 µM (inactive)
SK-MEL-5
  GI50: 1.99 µM (inactive)
OVCAR-8
  GI50: 2.18 µM (inactive)
MDA-MB-231
  GI50: 72.6 µM (inactive)
SN12C
  GI50: 3.5 µM (inactive)
RPMI-8226
  GI50: 3.3 µM (inactive)
SNB-75
  GI50: 25.9 µM (inactive)
DMS-114
  GI50: 5.53 µM (inactive)
K562
  GI50: 2.46 µM (inactive)
HCT-116
  GI50: 0.746 µM (active)
BT-549
  GI50: 43 µM (inactive)
SNB-78
  GI50: 4.25 µM (inactive)
M14
  GI50: 2.9 µM (inactive)
HT-29
  GI50: 0.787 µM (active)
NCI-H23
  GI50: 4.07 µM (inactive)
